Laboratory results as given in patent publication US20090274676A1, “COMBINATION OF DEHYDROEPIANDROSTERONE OR DEHYDROEPIANDROSTERONE-SULFATE WITH A PDE-4 INHIBITOR FOR TREATMENT OF ASTHMA OR CHRONIC OBSTRUCTIVE PULMONARY DISEASE” (priority 2003, published 2009).
Values joined by “and” are separate entries in the source; they are usually repeats but may differ in a detail not shown here. Equal values may be shown once. Marks after values point to notes of the source that are not given here.

What was measured:
Assay type in all cases: physicochemical
[1] = Aerosolization of neat DHEA-S dihydrate, Acu-Breathe single-dose inhaler, fine particle fraction; conditions: 30 L/min, IDL data
Text: The single-dose Acu-Breathe device is used for evaluating DHEA-S.dihydrate. […] These blisters are actuated into the Andersen 8-stage cascade impactor at flow rates ranging from 30 to 75 L/min with a glass twin-impinger throat. Stages 1-5 of the Andersen impactor are rinsed together to obtain an estimate of the fine particle fraction. Pooling the drug collected from multiple stages into one assay make the method much more sensitive. […] Using a carrier with a larger particle size typically improves the aerosol properties of micronized drug substances.

[2] = Emitted dose studies with dry powder inhalers; conditions: for Emitted Dose (%): single runs
Procedure: DHEA-S powder was collected in Nephele tubes and assayed by HPLC. Triplicate experiments were performed at each airflow rate for each of the three dry powder inhalers tested (Rotahaler, Diskhaler and IDL's DPI devices). A Nephele tube was fitted at one end with a glass filter (Gelman Sciences, Type A/E, […]), which in turn was connected to the airflow line to collect the emitted dose of the drug from the respective dry powder inhaler being tested. A silicone adapter, with an opening to receive the mouthpiece of the respective dry powder inhaler being tested at the other end of the Nephele tube was secured. A desired airflow, of 30, 60, or 90 L/min, was achieved through the Nephele tube. Each dry powder inhaler's mouthpiece was inserted then into the silicone rubber adapter, and the airflow was continued for about four s after which the tube was removed and an end-cap screwed onto the end of each tube. The end-cap of the tube not containing the filter was removed and 10 ml of an HPLC grade water-acetonitrile solution (1:1) added to the tube, the end-cap reattached, and the tube shaken for 1-2 minutes. The end-cap then was removed from the tube and the solution was transferred to a 10 ml plastic syringe fitted with a filter (Cameo 13N Syringe Filter, Nylon, 0.22 μm). An aliquot of the solution was directly filtered into an HPLC vial for later drug assay via HPLC. […] When the micronized DHEA-S (only vial B used), was weighed for placement into the gelatin capsule or blister, there appeared to be a few aggregates of the micronized powder. […] Table 2 summarizes the results for the Rotahaler experiments at 3 different flow rates, for the Diskhaler experiments at 3 different flow rates, and of the multi-dose experiments at 3 different flow rates.

[3] = Respirable dose studies, Andersen cascade impactor; conditions: 90 L/min
Procedure: The respirable dose (respirable fraction) studies were performed using a standard sampler cascade impactor (Andersen), consisting of an inlet cone (an impactor pre-separator was substituted here), 9 stages, 8 collection plates, and a backup filter within 8 aluminum stages held together by 3 spring clamps and gasket O-ring seals, where each impactor stage contains multiple precision drilled orifices. When air is drawn through the sampler, multiple jets of air in each stage direct any airborne particles toward the surface of the collection plate for that stage. The size of the jets is constant for each stage, but is smaller in each succeeding stage. Whether a particle is impacted on any given stage depends upon its aerodynamic diameter. The range of particle sizes collected on each stage depends upon on the jet velocity of the stage, and the cut-off point of the previous stage. Any particle not collected on the first stage follows the air stream around the edge of the plate to the next stage, where it is either impacted or passed on to the succeeding stage, and so on, until the velocity of the jet is sufficient for impaction. To prevent particle bounce during the cascade impactor test, the individual impactor plates were coated with a hexane-grease (high vacuum) solution (100:1 ratio). As noted above, the particle size cut-off points on the impactor plates changed at different airflow rates. […] The set-up recommended by the United States Pharmacopeia for testing dry powder inhalers consists of a mouthpiece adapter (silicone in this case) attached to a glass throat (modified 50 ml round-bottom flask) and a glass distal pharynx (induction port) leading top the pre-separator and Andersen sampler. The pre-separator sample includes washings from the mouthpiece adaptor, glass throat, distal glass pharynx and pre-separator. 5 ml acetonitrile:water (1:1 ratio) solvent was placed in the pre-separator before performing the cascade impactor experiment, that were performed in duplicate with 3 different dry powder inhaler devices and at 3 airflow rates, 30, 60 and 90 L/min. The drug collected on the cascade impactor plates were assayed by the HPLC, and a drug mass balance was performed for each Diskhaler and multi-dose cascade impactor experiment consisting of determining the amount of drug left in the blister, the amount of drug remaining in the device (Diskhaler only), the non-respirable amount of the dose retained on the silicone rubber mouth piece adaptor, glass throat, glass distal pharynx and pre-separator, all combined into one sample, and the respirable dose, i.e. Stage 2 through filter impactor plates for airflow rates of 30 and 60 L/min and Stages 1 through filter impactor plates for 90 L/min experiments.
The cascade impactor experiments were conducted as described in Example 3. Four cascade impactor experiments were done, three with a IDL multi-dose device and one with a Diskhaler, all at 90 L/min. […] However, the % respirable dose was still low. This was likely the result of moisture absorption of the anhydrous form.

[4] = Diskhaler (2nd study), 87.8 L/min
[5] = IDL Multi-Dose (2nd study), 87.8 L/min
[6] = Multi-dose, oven dried drug for 80 minutes
[7] = Multi-dose, oven dried drug for 20 hours

What does the source list for C[C@]12CC[C@H](OS(=O)(=O)[O-])CC1=CC[C@@H]1[C@@H]2CC[C@]2(C)C(=O)CC[C@@H]12.[Na+] [Anhydrous DHEA-S]?
Fine particle fraction (mass entering the impactor) [1]: no detectable mass entered the impactor; Emitted Dose (%), Average [2, 4]: 59.1%; Emitted Dose (%) [2, 4]: 57.9% and 59.9% and 59.5%; Emitted Dose (%), Average ([2]; Diskhaler, 30 L/min): 58.6%; Emitted Dose (%) ([2]; Diskhaler, 30 L/min): 53.8% and 53.4% and 68.7%; Emitted Dose (%), Average ([2]; Diskhaler, 60 L/min): 68.2%; Emitted Dose (%) ([2]; Diskhaler, 60 L/min): 63.4% and 38.9% and 58.0%; Emitted Dose (%), Average ([2]; Diskhaler, 87.8 L/min): 51.3%; Emitted Dose (%) ([2]; Diskhaler, 87.8 L/min): 65.7% and 41.6% and 46.5%; Emitted Dose (%), Average [2, 5]: 84.8%; Emitted Dose (%) [2, 5]: 85.7% and 84.6% and 84.0%; Emitted Dose (%), Average ([2]; IDL Multi-Dose, 30 L/min): 85.4%; Emitted Dose (%) ([2]; IDL Multi-Dose, 30 L/min): 78.9% and 88.2% and 89.2%; Emitted Dose (%), Average ([2]; IDL Multi-Dose, 60 L/min): 84.0%; Emitted Dose (%) ([2]; IDL Multi-Dose, 60 L/min): 78.8% and 83.7% and 89.6%; Emitted Dose (%), Average ([2]; IDL Multi-Dose, 87.8 L/min): 72.6%; Emitted Dose (%) ([2]; IDL Multi-Dose, 87.8 L/min): 71.3% and 79.0% and 67.4%; Emitted Dose (%), Average ([2]; Rotahaler (2nd study), 87.8 L/min): 31.5%; Emitted Dose (%), Average ([2]; Rotahaler, 30 L/min): 34.7%; Emitted Dose (%), Average ([2]; Rotahaler, 60 L/min): 57.3%; Emitted Dose (%) ([2]; Rotahaler, 60 L/min): 58.1% and 68.2% and 45.7%; Emitted Dose (%), Average ([2]; Rotahaler, 87.8 L/min): 69.7%; Emitted Dose (%) ([2]; Rotahaler, 87.8 L/min): 73.2% and 67.1% and 68.7%; Respirable dose of spray-dried compared to micronized anhydrous DHEA-S [3]: two-fold increase; Blister (%) [3, 6]: 2.8%; Preseparator (%) [3, 6]: 78.7%; Respirable Dose (%) [3, 6]: 4.6%; Device (%) ([3]; Multi-dose, oven dried drug for 80 minutes, obtained by difference): 13.9*^a %; Blister (%) [3, 7]: 5.0%; Preseparator (%) [3, 7]: 55.9%; Respirable Dose (%) [3, 7]: 1.2%; Device (%) ([3]; Multi-dose, oven dried drug for 20 hours, obtained by difference): 37.9*^a %; Blister (%) ([3]; jet-milled drug, Diskhaler): 6.6% and 10.1%; Device (%) ([3]; jet-milled drug, Diskhaler): 22.1% and 13.3%; Preseparator (%) ([3]; jet-milled drug, Diskhaler): 72.7% and 60.2%; Respirable Dose (%) ([3]; jet-milled drug, Diskhaler): 2.9% and 2.4%; Blister (%) ([3]; jet-milled drug, Multi-dose): 3.8% and 3.9%; Preseparator (%) ([3]; jet-milled drug, Multi-dose): 73.3% and 65.8%; Respirable Dose (%) ([3]; jet-milled drug, Multi-dose): 3.6% and 3.8%; Device (%) ([3]; jet-milled drug, Multi-dose, obtained by difference): 19.3*^a % and 26.5*^a %; Blisters (%) ([3]; spray-dried drug, Diskhaler): 29.0%; Device (%) ([3]; spray-dried drug, Diskhaler): 11.2%; Preseparator (%) ([3]; spray-dried drug, Diskhaler): 56.8%; Respirable Dose (%) ([3]; spray-dried drug, Diskhaler): 5.6%
